The values below come from patent publication US8785457B2 (Cellzome Limited, priority 2009, dated 2014).

The structures appear in SMILES notation.

Assay type in all cases: binding
For assay [1], the target named is T1, DNA-dependent protein kinase (DNA-PK) (Homo sapiens, UniProt P78527).
T1 construct: endogenous in cells; host or cells: Jurkat, clone E6-1 (ATCC TIB-152) cell lysate
Nature of the assay: kinobeads assay, DNA-PK. To be noted: kinobeads assay, Table 6; read-out: Inhibition values (IC50) DNAPK. In outline: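 Competitive binding in Jurkat cell lysate (5 mg/mL protein) against beads carrying an immobilized phenylmorpholin-chromen ligand, in DP buffer pH 7.4 with NP40, DTT and NaF. Bead-bound kinases were eluted and quantified by antibody dot blot with infrared detection, and IC50 was taken from dose-response curves of a 1:3 dilution series.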

A further assay addresses T2, PI3Kalpha (PI3Ka) (Homo sapiens, UniProt P42336).
T2 construct: endogenous in cells; host or cells: cell lysate
Nature of the assay: kinobeads assay, PI3Kalpha. To be noted: kinobeads assay, Table 6; for IC50: read-out: Inhibition values (IC50) PI3Ka. In outline: (§1)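 IC50s are fitted to per-kinase dose-response curves. Kinases retained on phenylmorpholin-chromen affinity beads are read by multiplexed immunodetection after elution. Compound, added at a range of concentrations straight into cell lysate, competes for this bead capture.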

A further assay addresses T3, PI3 Kbeta (PI3 Kb) (Homo sapiens, UniProt P42338).
T3 construct: endogenous in cells; host or cells: cell lysate
Nature of the assay: kinobeads assay, PI3Kbeta. To be noted: kinobeads assay, Table 6; read-out: Inhibition values (IC50) PI3Kb. In outline:
as §1

A further assay concerns the target T4, PI3 Kgamma (PI3 Kg) (Homo sapiens, UniProt P48736).
T4 construct: endogenous in cells; host or cells: cell lysate
Nature of the assay: kinobeads assay, PI3Kgamma. To be noted: kinobeads assay, Table 6; read-out: Inhibition values (IC50) PI3Kg. In outline: as §1

T2 sequence (P42336 whole entry): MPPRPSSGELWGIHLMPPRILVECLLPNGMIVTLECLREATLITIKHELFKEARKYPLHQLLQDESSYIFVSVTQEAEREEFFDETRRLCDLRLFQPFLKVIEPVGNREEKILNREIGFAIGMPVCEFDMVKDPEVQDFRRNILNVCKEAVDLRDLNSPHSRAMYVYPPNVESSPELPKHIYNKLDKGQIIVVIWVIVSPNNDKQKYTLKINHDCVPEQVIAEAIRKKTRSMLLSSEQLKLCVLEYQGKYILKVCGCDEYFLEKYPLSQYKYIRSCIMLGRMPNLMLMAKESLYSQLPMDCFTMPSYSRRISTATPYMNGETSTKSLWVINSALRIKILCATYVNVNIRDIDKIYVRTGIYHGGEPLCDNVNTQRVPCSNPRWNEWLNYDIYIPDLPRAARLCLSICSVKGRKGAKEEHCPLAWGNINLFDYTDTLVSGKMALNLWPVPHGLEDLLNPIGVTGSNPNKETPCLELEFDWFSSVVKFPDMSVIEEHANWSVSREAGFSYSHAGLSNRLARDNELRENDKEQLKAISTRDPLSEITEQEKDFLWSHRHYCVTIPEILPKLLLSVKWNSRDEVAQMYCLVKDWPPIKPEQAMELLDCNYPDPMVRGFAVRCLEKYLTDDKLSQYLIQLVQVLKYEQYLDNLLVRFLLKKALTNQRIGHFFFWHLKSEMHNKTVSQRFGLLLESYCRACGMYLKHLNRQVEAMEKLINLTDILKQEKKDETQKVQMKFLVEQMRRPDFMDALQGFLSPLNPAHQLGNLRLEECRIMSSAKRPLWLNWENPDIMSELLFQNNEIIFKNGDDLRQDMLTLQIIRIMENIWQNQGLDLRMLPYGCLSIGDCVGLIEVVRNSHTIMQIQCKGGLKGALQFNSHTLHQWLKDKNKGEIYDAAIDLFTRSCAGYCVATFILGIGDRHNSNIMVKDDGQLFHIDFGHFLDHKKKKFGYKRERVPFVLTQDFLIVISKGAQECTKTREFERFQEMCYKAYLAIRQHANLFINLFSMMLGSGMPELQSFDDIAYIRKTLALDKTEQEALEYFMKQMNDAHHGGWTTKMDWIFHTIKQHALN
T2 sequence (P27986 whole entry partner): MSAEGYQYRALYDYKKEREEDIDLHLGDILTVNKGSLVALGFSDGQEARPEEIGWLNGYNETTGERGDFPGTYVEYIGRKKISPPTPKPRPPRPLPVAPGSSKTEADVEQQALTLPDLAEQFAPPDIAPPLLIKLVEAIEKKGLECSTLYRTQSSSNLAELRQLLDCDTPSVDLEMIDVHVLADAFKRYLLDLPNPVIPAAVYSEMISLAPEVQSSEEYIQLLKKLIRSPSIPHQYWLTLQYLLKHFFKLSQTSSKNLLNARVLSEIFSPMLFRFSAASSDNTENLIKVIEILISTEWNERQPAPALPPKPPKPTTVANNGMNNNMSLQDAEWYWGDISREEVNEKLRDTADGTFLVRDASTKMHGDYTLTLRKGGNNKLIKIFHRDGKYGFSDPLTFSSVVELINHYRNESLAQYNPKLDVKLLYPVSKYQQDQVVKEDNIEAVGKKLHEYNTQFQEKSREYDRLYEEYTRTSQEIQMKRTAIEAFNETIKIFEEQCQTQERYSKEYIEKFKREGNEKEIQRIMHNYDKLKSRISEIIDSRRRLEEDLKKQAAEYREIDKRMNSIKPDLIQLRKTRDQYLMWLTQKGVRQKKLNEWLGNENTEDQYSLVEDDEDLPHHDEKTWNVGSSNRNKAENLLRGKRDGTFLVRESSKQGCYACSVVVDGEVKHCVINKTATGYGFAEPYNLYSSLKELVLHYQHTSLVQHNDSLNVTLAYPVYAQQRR
T3 sequence (P42338 whole entry): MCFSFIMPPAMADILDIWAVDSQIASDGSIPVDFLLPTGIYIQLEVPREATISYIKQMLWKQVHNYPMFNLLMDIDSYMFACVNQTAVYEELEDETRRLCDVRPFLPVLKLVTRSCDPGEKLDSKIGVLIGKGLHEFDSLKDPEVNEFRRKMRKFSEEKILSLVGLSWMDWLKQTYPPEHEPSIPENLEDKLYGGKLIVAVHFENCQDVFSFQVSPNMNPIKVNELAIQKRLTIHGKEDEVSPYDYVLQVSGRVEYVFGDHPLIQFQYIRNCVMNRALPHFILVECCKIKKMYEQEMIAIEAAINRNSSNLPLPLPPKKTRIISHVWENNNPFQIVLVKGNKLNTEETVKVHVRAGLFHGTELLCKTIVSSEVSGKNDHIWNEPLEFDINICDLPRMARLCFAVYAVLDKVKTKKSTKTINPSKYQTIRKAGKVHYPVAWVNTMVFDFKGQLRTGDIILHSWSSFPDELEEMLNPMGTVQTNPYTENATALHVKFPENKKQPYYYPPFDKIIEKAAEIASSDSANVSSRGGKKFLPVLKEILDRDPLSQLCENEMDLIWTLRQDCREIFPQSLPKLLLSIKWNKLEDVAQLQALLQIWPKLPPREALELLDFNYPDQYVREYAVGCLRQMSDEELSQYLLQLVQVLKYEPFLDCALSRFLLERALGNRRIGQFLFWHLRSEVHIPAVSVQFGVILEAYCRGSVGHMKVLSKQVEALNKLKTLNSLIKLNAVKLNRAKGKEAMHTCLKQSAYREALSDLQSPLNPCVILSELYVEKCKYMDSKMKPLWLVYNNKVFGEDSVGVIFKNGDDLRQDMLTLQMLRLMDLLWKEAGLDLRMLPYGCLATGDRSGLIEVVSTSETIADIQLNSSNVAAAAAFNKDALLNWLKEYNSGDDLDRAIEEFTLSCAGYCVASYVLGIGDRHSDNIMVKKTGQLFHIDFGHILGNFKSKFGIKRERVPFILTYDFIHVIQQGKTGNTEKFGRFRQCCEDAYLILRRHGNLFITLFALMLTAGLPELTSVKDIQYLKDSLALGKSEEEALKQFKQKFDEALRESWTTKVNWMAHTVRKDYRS
T3 sequence (P27986 whole entry partner): as the sequence (P27986 whole entry partner) above
T4 sequence (P48736 whole entry): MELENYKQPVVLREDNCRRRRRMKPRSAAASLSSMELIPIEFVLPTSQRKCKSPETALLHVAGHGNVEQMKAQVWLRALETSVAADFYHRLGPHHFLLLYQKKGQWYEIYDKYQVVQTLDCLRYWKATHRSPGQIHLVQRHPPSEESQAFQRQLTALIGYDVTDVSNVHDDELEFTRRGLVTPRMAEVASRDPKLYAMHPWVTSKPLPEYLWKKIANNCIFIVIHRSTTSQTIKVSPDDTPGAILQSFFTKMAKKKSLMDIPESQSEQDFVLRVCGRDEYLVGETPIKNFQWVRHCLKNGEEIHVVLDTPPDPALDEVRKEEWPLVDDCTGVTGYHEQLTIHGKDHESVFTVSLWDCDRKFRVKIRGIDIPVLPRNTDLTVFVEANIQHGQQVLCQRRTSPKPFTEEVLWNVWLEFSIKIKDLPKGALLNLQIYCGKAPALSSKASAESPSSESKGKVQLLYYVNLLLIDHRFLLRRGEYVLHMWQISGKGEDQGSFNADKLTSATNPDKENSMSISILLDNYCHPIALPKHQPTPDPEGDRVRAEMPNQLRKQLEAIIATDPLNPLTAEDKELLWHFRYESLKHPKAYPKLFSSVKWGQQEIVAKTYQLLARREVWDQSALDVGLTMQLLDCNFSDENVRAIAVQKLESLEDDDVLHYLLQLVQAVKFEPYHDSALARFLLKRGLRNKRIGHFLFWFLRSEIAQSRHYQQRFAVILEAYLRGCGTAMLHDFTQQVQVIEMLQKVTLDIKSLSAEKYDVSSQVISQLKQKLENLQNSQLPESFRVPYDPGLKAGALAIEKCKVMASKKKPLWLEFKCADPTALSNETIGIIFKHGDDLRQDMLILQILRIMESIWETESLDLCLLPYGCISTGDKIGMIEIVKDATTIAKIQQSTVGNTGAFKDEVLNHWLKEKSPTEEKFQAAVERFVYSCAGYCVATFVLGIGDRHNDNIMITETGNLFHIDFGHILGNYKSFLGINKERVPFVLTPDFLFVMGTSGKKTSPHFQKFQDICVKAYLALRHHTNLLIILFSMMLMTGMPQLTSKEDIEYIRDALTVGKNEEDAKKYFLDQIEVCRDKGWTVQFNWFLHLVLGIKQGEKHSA

For `CC(C)CN1Cc2nc(-c3ccc(NC(=O)NC4CC4)cc3)nc(N3CCOC[C@@H]3C)c2C1` [Example 65, (S)-1-cyclopropyl-3-(4-(6-isobutyl-4-(3-methylmorpholino)-6,7-dihydro-5H-pyrrolo[3,4-d]pyrimidin-2-yl)phenyl)urea], the IC50 (in assay [1]; on PI3 Kbeta (PI3 Kb); on PI3 Kgamma (PI3 Kg)) was > 10 µM each time. Moreover, the “Inhibition values (IC50) PI3Ka” value at PI3Kalpha (PI3Ka) is given as “D (D >10 μM)”.

On to `CCNC(=O)Nc1ccc(-c2nc3c(c(N4CCOC[C@@H]4C)n2)CN(CC(C)C)C3)cc1` [Example 66, (S)-1-ethyl-3-(4-(6-isobutyl-4-(3-methylmorpholino)-6,7-dihydro-5H-pyrrolo[3,4-d]pyrimidin-2-yl)phenyl)urea], for which the IC50 (in assay [1]; on PI3 Kbeta (PI3 Kb); at PI3 Kgamma (PI3 Kg)) was > 10 µM each time. Also, the “Inhibition values (IC50) PI3Ka” value at PI3Kalpha (PI3Ka) was “D (D >10 μM)”.

Turning to `CCNC(=O)Nc1ccc(-c2nc3c(c(N4CCOC[C@@H]4C)n2)CN(CC(C)(C)C)C3)cc1` [Example 67, (S)-1-ethyl-3-(4-(4-(3-methylmorpholino)-6-neopentyl-6,7-dihydro-5H-pyrrolo[3,4-d]pyrimidin-2-yl)phenyl)urea], the half-maximal inhibitory concentration (IC50) (in assay [1]; at PI3 Kbeta (PI3 Kb); on PI3 Kgamma (PI3 Kg)) was > 10 µM in each case. For the same compound, the “Inhibition values (IC50) PI3Ka” value on PI3Kalpha (PI3Ka) is recorded as “D (D >10 μM)”.

Regarding `CCNC(=O)Nc1ccc(-c2nc3c(c(N4CCOC[C@@H]4C)n2)CN(CC(F)(F)F)C3)cc1` [Example 68, (S)-1-ethyl-3-(4-(4-(3-methylmorpholino)-6-(2,2,2-trifluoroethyl)-6,7-dihydro-5H-pyrrolo[3,4-d]pyrimidin-2-yl)phenyl)urea], the IC50 (in assay [1]; on PI3 Kbeta (PI3 Kb); on PI3 Kgamma (PI3 Kg)) was > 10 µM throughout. On PI3Kalpha (PI3Ka), the “Inhibition values (IC50) PI3Ka” value was “D (D >10 μM)”.

For `CCNC(=O)Nc1ccc(-c2nc3c(c(N4CCOCC4)n2)CN(C)C3)cc1` [Example 69, 1-Ethyl-3-(4-(6-methyl-4-morpholino-6,7-dihydro-5H-pyrrolo[3,4-d]pyrimidin-2-yl)phenyl)urea], the IC50 in assay [1] is > 10 µM; on PI3Kalpha (PI3Ka) it was 1 to 10 µM; on PI3 Kbeta (PI3 Kb), 1 to 10 µM; at PI3 Kgamma (PI3 Kg) it was > 10 µM.

As to `CCNC(=O)Nc1ccc(-c2nc3c(c(N4CCOCC4)n2)CN(C(=O)OCC)C3)cc1` [Example 70, Ethyl 2-(4-(3-ethylureido)phenyl)-4-morpholino-5H-pyrrolo[3,4-d]pyrimidine-6(7H)-carboxylate], the results for the IC50 (in assay [1]; on PI3 Kbeta (PI3 Kb); at PI3 Kgamma (PI3 Kg)) were 1 to 10 µM, > 10 µM and > 10 µM, respectively. Further, the “Inhibition values (IC50) PI3Ka” value on PI3Kalpha (PI3Ka) is “D (D >10 μM)”.

In the case of `C[C@H]1COCCN1c1nc(-c2ccc(NC(N)=O)cc2)nc2c1CN(C)C2` [Example 71, (S)-1-(4-(6-methyl-4-(3-methylmorpholino)-6,7-dihydro-5H-pyrrolo[3,4-d]pyrimidin-2-yl)phenyl)urea], the IC50 in assay [1] was > 10 µM; on PI3Kalpha (PI3Ka), 1 to 10 µM; at PI3 Kbeta (PI3 Kb) it was 1 to 10 µM; on PI3 Kgamma (PI3 Kg), 1 to 10 µM.

As for `Cc1cc(NC(=O)Nc2ccc(-c3nc4c(c(N5CCOC[C@@H]5C)n3)CN(C)C4)cc2)no1` [Example 72, (S)-1-(4-(6-methyl-4-(3-methylmorpholino)-6,7-dihydro-5H-pyrrolo[3,4-d]pyrimidin-2-yl)phenyl)-3-(5-methylisoxazol-3-yl)urea], the IC50 (in assay [1]; on PI3 Kbeta (PI3 Kb); at PI3 Kgamma (PI3 Kg)) was > 10 µM each time. For the same compound, the “Inhibition values (IC50) PI3Ka” value at PI3Kalpha (PI3Ka) is “D (D >10 μM)”.

Turning to `C[C@H]1COCCN1c1nc(-c2ccc(NC(=O)NCCO)cc2)nc2c1CN(C)C2` [Example 73, (S)-1-(2-hydroxyethyl)-3-(4-(6-methyl-4-(3-methylmorpholino)-6,7-dihydro-5H-pyrrolo[3,4-d]pyrimidin-2-yl)phenyl)urea], the IC50 in assay [1] was > 10 µM; on PI3Kalpha (PI3Ka), 1 to 10 µM; on PI3 Kbeta (PI3 Kb) it was 1 to 10 µM; at PI3 Kgamma (PI3 Kg), > 10 µM.

Usually IC50 stands for the point on the concentration scale where inhibition reaches its midpoint.
